In PMC4503722, “Novel Phenotypic Outcomes Identified for a Public Collection of Approved Drugs from a Publicly Accessible Panel of Assays” (PLoS ONE, 2015):
Read-outs that look alike come from different tables or passages of the source.

Experiments:
[1] = system: endothelial tube formation in co-cultures of ECFCs and ADSCs treated with VEGF; test: cells; type: cell-based, human
NCI-H716 cells = test: cells; type: cell-based, Human; settings: for IC50/EC50, hNCI-H716 GLP1 Secretion (assay number 12): concentration response
STC-1 cell line = type: cell-based, mouse; settings: for IC50/EC50, mSTC-1 GLP1 Secretion (assay number 13): concentration response
HeLa cells = test: cells; type: cell-based; settings: for Hela CellCycMod PI 2N IC50/EC50: assay number 14; for Hela CellCycMod PI 4N IC50/EC50: assay number 16; for Hela CellCycMod PI MI IC50/EC50: assay number 17; for Hela CellCycMod PI Cell Number IC50/EC50: assay number 18; for Hela CellCycMod PI S Phase IC50/EC50: assay number 15
[2] = system: ECFC/ADSC co-culture cell nuclei number

Compound	VEGF_ADSC\ECFC Angio CD31 TubeArea IC50/EC50 [1]	hNCI-H716 GLP1 Secretion IC50/EC50 (NCI-H716 cells; assay number 12)	mSTC-1 GLP1 Secretion IC50/EC50 (STC-1 cell line; assay number 13)	VEGF_ADSC\ECFC Angio Hoechst NucArea IC50/EC50 [2]	further results
CCCCCCCCCCCCCCCC[N+](C)(C)CCN(Cc1ccc(OC)cc1)c1ncccn1.[Br-] [NCGC00016507-05]	3.0741 µM	17.7844 µM	> 40 µM	> 10 µM	Hela CellCycMod PI 2N IC50/EC50 (HeLa cells): > 10 µM; Hela CellCycMod PI 4N IC50/EC50 (HeLa cells): > 10 µM; Hela CellCycMod PI MI IC50/EC50 (HeLa cells): > 10 µM; Hela CellCycMod PI Cell Number IC50/EC50 (HeLa cells): 0.3488 µM
O=C(Nc1ccc(S(=O)(=O)N2CCOCC2)cc1)c1cc(Cl)ccc1NS(=O)(=O)c1ccc(Cl)s1 [NCGC00249417-02]	> 10 µM	> 40 µM	> 40 µM	> 10 µM	–
COc1cc2nc(N3CCN(C(=O)C4COc5ccccc5O4)CC3)nc(N)c2cc1OC.CS(=O)(=O)O (stereo not drawn) [NCGC00018158-09]	> 10 µM	> 40 µM	10.6547 µM	> 10 µM	–
C[C@@H](NCCCc1cccc(C(F)(F)F)c1)c1cccc2ccccc12.Cl [NCGC00181002-04]	> 10 µM	17.1869 µM	> 40 µM	> 10 µM	–
O=C(O)C[CH2][Ge](=[O])[O][Ge](=[O])[CH2]CC(=O)O [NCGC00164525-02]	0.1546 µM	1.5271 µM	0.7932 µM	0.2606 µM	Hela CellCycMod PI 2N IC50/EC50 (HeLa cells): > 10 µM; Hela CellCycMod PI S Phase IC50/EC50 (HeLa cells): > 10 µM; Hela CellCycMod PI 4N IC50/EC50 (HeLa cells): > 10 µM; Hela CellCycMod PI MI IC50/EC50 (HeLa cells): > 10 µM; Hela CellCycMod PI Cell Number IC50/EC50 (HeLa cells): 0.5034 µM
CCCCCCCCCCCCCCCCCCOCC(O)CO (stereo not drawn) [NCGC00095748-04]	–	> 40 µM	> 40 µM	–	–
O=C(O)c1cc(N=Nc2ccc([O-])c(C(=O)O)c2)ccc1[O-].[Na+].[Na+] [NCGC00181008-02]	–	> 40 µM	9.5352 µM	–	–
Cc1cc(C(C)(C)CC(C)(C)C)ccc1OCCOCC[N+](C)(C)Cc1ccccc1 [NCGC00016789-06]	> 10 µM	12.042 µM	> 40 µM	8.703 µM	–
Clc1ccc(CSC(Cn2ccnc2)c2ccc(Cl)cc2Cl)cc1.O=[N+]([O-])O (stereo not drawn) [NCGC00018250-06]	2.1282 µM	20.9915 µM	> 40 µM	8.757 µM	–
Cc1c(C)c2c(c(C)c1OC(=O)CCC(=O)OCCO)CC[C@@](C)(CCC[C@H](C)CCC[C@H](C)CCCC(C)C)O2 [NCGC00183103-01]	–	> 40 µM	> 40 µM	–	–
CC[C@H](C)C(=O)O[C@H]1C[C@@H](C)C=C2C=C[C@H](C)[C@H](CC[C@@H]3C[C@@H](O)CC(=O)O3)[C@H]21 [NCGC00023509-13]	3.2658 µM	32.895 µM	> 40 µM	> 10 µM	Hela CellCycMod PI 2N IC50/EC50 (HeLa cells): > 10 µM; Hela CellCycMod PI S Phase IC50/EC50 (HeLa cells): > 10 µM; Hela CellCycMod PI 4N IC50/EC50 (HeLa cells): > 10 µM; Hela CellCycMod PI MI IC50/EC50 (HeLa cells): > 10 µM; Hela CellCycMod PI Cell Number IC50/EC50 (HeLa cells): > 10 µM
C=Cc1c(C)c2cc3[nH]c(cc4nc(cc5nc(cc1[nH]2)C(C)=C5CCC(=O)O)C(CCC(=O)O)=C4C)c(C)c3C=C [NCGC00015844-10]	–	19.5523 µM	> 40 µM	–	–
CC(C)(C)CC(C)(C)c1ccc(O)cc1 [NCGC00164127-07]	> 10 µM	25.8625 µM	8.3699 µM	9.1112 µM	–
O=c1oc2ccccc2c(O)c1C(CC(O)c1ccc(-c2ccc(Br)cc2)cc1)c1ccccc1 (stereo not drawn) [NCGC00163939-02]	–	–	–	–	hNCI-H716 GLP1 Secretion IC50/EC50 (NCI-H716 cells): > 40 µM; mSTC-1 GLP1 Secretion IC50/EC50 (STC-1 cell line): 9.1609 µM
CCCOC(C(=O)OC1CCN(C)CC1)(c1ccccc1)c1ccccc1.Cl [NCGC00181103-02]	–	> 40 µM	23.8177 µM	–	–
CCN(CC)CCOC(=O)C(Cc1cccc2ccccc12)CC1CCCO1 (stereo not drawn) [NCGC00178213-05]	–	> 40 µM	> 40 µM	–	–
Cc1cc(N)c2cc(NC(=O)Nc3ccc4nc(C)cc(N)c4c3)ccc2n1 [NCGC00013130-04]	–	34.2472 µM	> 40 µM	–	–
Cl.Nc1cc(C(F)(F)F)ccc1S [NCGC00262926-01]	> 10 µM	15.3214 µM	1.1561 µM	> 10 µM	–
COc1ccc(OC(=O)N(CC(=O)O)Cc2ccc(OCCc3nc(-c4ccccc4)oc3C)cc2)cc1 [NCGC00262954-01]	–	36.168 µM	1.5351 µM	–	–
CN(C)[C@@H]1C(=O)C(C(=O)NCN2CCCC2)=C(O)[C@@]2(O)C(=O)C3=C(O)c4c(O)cccc4[C@@](C)(O)[C@H]3C[C@@H]12 [NCGC00263906-02]	–	> 40 µM	> 40 µM	–	–

Compound	VEGF_ADSC\ECFC Angio CD31 TubeArea IC50/EC50 [1]	hNCI-H716 GLP1 Secretion IC50/EC50 (NCI-H716 cells; assay number 12)	mSTC-1 GLP1 Secretion IC50/EC50 (STC-1 cell line; assay number 13)	VEGF_ADSC\ECFC Angio Hoechst NucArea IC50/EC50 [2]	further results
CCCCC(CC)CN1CN(CC(CC)CCCC)CC(C)(N)C1 (stereo not drawn) [NCGC00094819-07]	–	36.4422 µM	26.5729 µM	–	–
CCCCCCCC/C=C\CCCCCCCCN [NCGC00164329-03]	> 10 µM	14.7555 µM	> 40 µM	9.128 µM	–
propagermanium [reference compound]	–	–	–	–	activity in NCI-H716 GLP-1 secretion assay (in words) (NCI-H716 cells): potent actives; activity in STC-1 GLP-1 secretion assay (in words) (STC-1 cell line): potent actives
CC(O)C(=O)O.CCCCCCCCCCCCCCNCCO [NCGC00164503-02]	> 10 µM	13.5546 µM	> 20 µM	9.1871 µM	–
Nc1ccc(Cl)cc1C(=O)c1ccccc1F [NCGC00253725-01]	–	> 40 µM	> 40 µM	–	–
O=C(Nc1cccc2c(=O)cc(-c3nn[nH]n3)oc12)c1ccc(OCCCCc2ccccc2)cc1 [NCGC00181765-01]	–	> 40 µM	> 40 µM	–	–
CC1=C(C(=O)OC(C)C)C(c2cccc([N+](=O)[O-])c2)C(C(=O)OC2CN(C(c3ccccc3)c3ccccc3)C2)=C(N)N1 (stereo not drawn) [NCGC00167436-02]	3.5833 µM	12.7519 µM	1.234 µM	7.394 µM	–
CCOC(=O)[C@@H](N)CS.Cl [NCGC00166061-02]	–	–	–	–	IC50/EC50, hNCI-H716 GLP1 Secretion (assay number 12) (NCI-H716 cells): > 40 µM; IC50/EC50, mSTC-1 GLP1 Secretion (assay number 13) (STC-1 cell line): 14.3442 µM
Cc1c(NC(C)C)c(=O)n(-c2ccccc2)n1C [NCGC00016735-06]	–	> 40 µM	> 40 µM	–	–
C/C=C(/C(=C/C)c1ccc(O)cc1)c1ccc(O)cc1 [NCGC00018153-10]	–	–	–	–	IC50/EC50, hNCI-H716 GLP1 Secretion (assay number 12) (NCI-H716 cells): > 40 µM; IC50/EC50, mSTC-1 GLP1 Secretion (assay number 13) (STC-1 cell line): > 40 µM
CN(C(=O)CN(CCO)CC(=O)N(C)C(C)(C)Cc1ccccc1)C(C)(C)Cc1ccccc1 [NCGC00016382-07]	–	–	–	–	IC50/EC50, hNCI-H716 GLP1 Secretion (assay number 12) (NCI-H716 cells): 25.0515 µM; IC50/EC50, mSTC-1 GLP1 Secretion (assay number 13) (STC-1 cell line): > 40 µM
Clc1ccc(CO/N=C(\Cn2ccnc2)c2ccc(Cl)cc2Cl)c(Cl)c1.O=[N+]([O-])O [NCGC00177980-03]	> 10 µM	> 40 µM	> 40 µM	8.846 µM	–
[Cl][Pt+2][Cl].[NH2-].[NH2-] [NCGC00263537-01]	–	–	–	–	IC50/EC50, hNCI-H716 GLP1 Secretion (assay number 12) (NCI-H716 cells): > 40 µM; IC50/EC50, mSTC-1 GLP1 Secretion (assay number 13) (STC-1 cell line): > 40 µM
O=c1[nH]sc2cc(Cl)ccc12 [NCGC00262908-01]	–	–	–	–	IC50/EC50, VEGF_ADSC\ECFC Angio CD31 TubeArea (assay number 2) [1]: > 10 µM; IC50/EC50, hNCI-H716 GLP1 Secretion (assay number 12) (NCI-H716 cells): > 40 µM; IC50/EC50, mSTC-1 GLP1 Secretion (assay number 13) (STC-1 cell line): > 40 µM; IC50/EC50, VEGF_ADSC\ECFC Angio Hoechst NucArea (assay number 3) [2]: 9.427 µM
CN[C@@H]1[C@H](O)[C@H](NC)[C@H]2O[C@@]3(O)C(=O)C[C@@H](C)O[C@H]3O[C@@H]2[C@H]1O.Cl.Cl [NCGC00017354-07]	–	> 40 µM	> 40 µM	–	–
O=C1OC2(c3ccccc31)c1cc(I)c(O)c(I)c1Oc1c2cc(I)c(O)c1I [NCGC00166249-03]	–	> 40 µM	2.9301 µM	–	–
c1ccc2ccccc2c1 [NCGC00090793-05]	–	20.7685 µM	> 40 µM	–	–
CC(C)(Oc1ccc(C2CC2(Cl)Cl)cc1)C(=O)O (stereo not drawn) [NCGC00015202-08]	–	> 40 µM	> 40 µM	–	–
Cc1nnc2n1-c1sc(CCc3ccc(CC(C)C)cc3)cc1C(c1ccccc1Cl)=NC2C (stereo not drawn) [NCGC00183008-01]	–	24.6779 µM	> 40 µM	–	–
[O-][S+](c1cc(Cl)cc(Cl)c1O)c1cc(Cl)cc(Cl)c1O [NCGC00160554-02]	> 10 µM	19.7164 µM	> 40 µM	> 10 µM	–
